This is an account of results in patent US20170049793A1, “MOLECULAR ACTIVATORS OF THE WNT/BETA-CATENIN PATHWAY” (THE GENERAL HOSPITAL CORPORATION, priority 2009, published 2017).

Data set [1] has as its system B16 melanoma cells. The data set is described as follows: MTT proliferation assay in B16 melanoma cells. The format is cell-based, murine. The conditions noted are these: 1 μM BIO vs control cells.
The subject of data set [2] is nuclear β-catenin (Wnt/β-catenin pathway) in B16 cells. The data set is described as follows: Immunofluorescent staining of β-catenin in B16 cells. Type of data set: cell-based, murine. The conditions noted are these: 1 μM BIO vs DMSO control. The method, then:
A polyclonal rabbit anti-β-catenin antibody was used for detection of 1β-catenin (1:1000 dilution for immunoblot, 1:200 dilution for immunohistochemistry). Cells were grown on 18 mm glass coverslips, for 48-72 hours, fixed using 4% paraformaldehyde, permeabilized using 0.25% Triton X-100, and then blocked with 10% goat serum. Goat anti-rabbit Alexa Fluor-568 antibody (Molecular Probes; Eugene, Oreg.) was diluted 1:1000. Cells were counterstained for nucleic acid with DAPI (Molecular Probes; Eugene, Oreg.). Paraffin-embedded nevus sections were stained using an antibody dilution of 1:200. Cellular lysates were obtained by lysing cells on plate with a 0.1% NP-40 based buffer and analyzed by NuPage 4-12% gradient gels (Invitrogen; Grand Island, N.Y.). The WNTSA antibody was obtained from Cell Signaling Technologies (Danvers, Mass.).

A short description of data set [3]: Suitability for murine therapeutic trials (toxicity, serum levels). Type of data set: in vivo, mice. The settings on record: precluding murine therapeutic trials.
The test system of data set [4] is Axin2 expression (Wnt/β-catenin pathway) in B16 cells. The data set is described as follows: Quantitative PCR of the Wnt/β-catenin target gene Axin2 in B16 cells. The settings on record: 1 μM BIO vs control cells. Type of data set: cell-based, murine. The method, then: Cells were cultured for approximately 72 hours until they reached 80-90% confluency. RNA was purified using the RNeasy kit using the manufacturer's protocol (Qiagen; Maryland, Md.). cDNA was synthesized using Superscript Reverse Transcriptase (Invitrogen; Grand Island, N.Y.). Light Cycler FastStart DNA Master SYBR Green1 (Roche; Mannheim, Germany) was used for real-time PCR as previously described (Major et al., Science 316:1043 (2007), which is hereby incorporated by reference in its entirety). Quantitative PCR results presented in the manuscript are representative of experiments performed on a minimum of three biologic replicates.

On to `O=C1Nc2cc(Br)ccc2/C1=C1/Nc2ccccc2/C1=N\O` [BIO, 6-bromoindirubin-3′-oxime], for which the “proliferation (MTT assay)” value in data set [1] is reported as “decreased proliferation”. The “nuclear β-catenin (immunofluorescent staining)” value in data set [2] is “increased nuclear β-catenin”. In addition, the toxicity result in data set [3] is “obstacles relating to both toxicity”. For the same compound, the “Axin2 levels (quantitative PCR)” value in data set [4] is recorded as “increased Axing levels”.
